Tests used:
[1] = system: major cytochrome P450 isoforms; test: Cytochrome P450 inhibition; type: in vitro ADME
CAL51 MUS81^–/– cells = test: Cell proliferation assay (CyQUANT), combination with cisplatin; type: cell-based
Method: CAL51 WT, CAL51 MUS81^–/–, U2OS, and HEK293 cells were seeded in a 96-well plate and treated with the respective concentration of selected inhibitors. After incubation for 4–5 days, cells were harvested while the untreated control was still subconfluent. The plate was then incubated at −80 °C to achieve cell lysis. Cell proliferation was assessed using the CyQUANT Cell Proliferation Assay kit (Thermo Fisher Scientific) according to manufacturer’s instructions. […] was measured using a plate reader (Infinite F500, Tecan Austria GmbH).

U2OS cells [2] = test: EdU/PI cell cycle assay; type: cell-based; settings: 72 h; for cell cycle progression: 0.5 μM; for cell cycle profile: 1 μM
Method: Given these promising findings, we further investigated the specificity of MU262 and MU876 and potential short-term cytotoxicity. To mirror the treatment duration used in BIR and HR assays, U2OS cells were exposed to the inhibitors or siRNA for 3 days.
U2OS WT cells (300,000) were seeded in a 6-well plate; a subset of them was treated with either control siRNA or siRNA targeting MUS81. After adhesion, cells were treated with the respective inhibitors for 72 h during which CPT ([…], Sigma-Aldrich) was added for the last 16 h and 10 μM EdU (Sigma-Aldrich) was added for the last 1 h. Cells were then harvested and stained by using the Click-iT EdU Alexa Fluor 647 Flow Cytometry Assay Kit (Thermo Fisher Scientific). Finally, cells were resuspended in 1xPBS containing 5 μg/mL of propidium iodide (PI) and analyzed using a BD FACSVerse flow cytometer (Becton Dickinson) and FlowJo software (BD Life Sciences). At least 20,000 cells were used for each measurement, and experiments were performed in duplicates.

U2OS DR-GFP cells = test: I-SceI-based HR repair reporter assay; type: cell-based; settings: Homo sapiens, 72 h
Method: 3 MUS81 inhibitors suppress HR and BIR. (A) I-SceI-based BIR repair efficiency was measured in U2OS BIR-GFP cells treated with DMSO, two different siRNAs targeting MUS81, or the indicated concentrations of MU262 and MU876, and their control analogues for 72 h. The percentage of repair was normalized to the DMSO-treated control (D). n = 3. Error bars represent standard deviation (s.d.); ****p <0.0001 (unpaired, two-tailed t-test). […] (C,D) I-SceI-based HR (C) and NHEJ (D) repair efficiency was measured using U2OS DR-GFP and EJ5-GFP cells, respectively, following treatment with DMSO, MU262,MU876, or their control analogues for 72 h. The percentage of repair was normalized to the DMSO-treated control. n = 3. Error bars represent s.d.; *p <0.05, **p <0.01, ****p <0.0001 (unpaired, two-tailed t-test).
Reporter DR-GFP and […] U2OS cells along with BIR-GFP cells were transfected with 2.5 μg of I-SceI-expressing pCAGGS vector and subsequently treated with MUS81 inhibitors at the indicated concentrations. After transfection (72 h), cells were trypsinized and resuspended in 3% BSA in PBS. GFP fluorescence detection was carried out using a BD FACSVerse flow cytometer, and the data were analyzed with FlowJo software (BD Life Sciences). Data presented in the graph were normalized to the DMSO-treated sample.

U2OS cells [3] = test: γH2AX foci immunofluorescence, 72 h treatment; type: cell-based
Method: 6 MUS81 inhibition induces persistent DNA damage leading to reduced cell survival. (A) U2OS cells were treated with DMSO, cisplatin as a positive control, control or MUS81-targeting siRNA, MU262, MU876, and their negative control counterparts at the indicated concentrations for 72 h. Representative images show staining of a DNA damage marker γH2AX in green with counterstaining of DAPI in blue. The concentration of all inhibitors shown in (A) is 2.5 μM. (B) DNA damage was assessed by quantifying γH2AX foci per nucleus from (A) using CellProfiller software. The graph represents percentage (%) of cells with ≥20 γH2AX foci per nucleus across different concentrations of inhibitors. n = 3; error bars represent s.d. (C) Indicated number of U2OS cells was transfected with a nontargeting siRNA (siCon) or MUS81-targeting siRNA (siMUS81) seeded for a CFA. […] (D) Quantification of (C), error bars represent s.d.; ****p <0.0001 (unpaired, two-tailed t-test). […] (F) Quantification of (E) using a nonlinear regression fitting model. n = 3. […] (H) Quantification of (G) using a nonlinear regression fitting model. n = 3.
U2OS, CAL51 WT, and CAL51 MUS81^–/– cells (10,000) were seeded in a 96-well plate 24 h before the treatment. […] The γH2AX foci were detected and quantified using CellProfiler (Broad Institute of MIT and Harvard). The analyzed data were plotted in RStudio software using R programming language.

## Cc1cc(=O)[nH]c(-n2nc(-c3ccccc3)cc2NC(=O)c2cc(-c3ccccc3)on2)n1 [Compound 32, N-(1-(4-Methyl-6-oxo-1,6-dihydropyrimidin-2-yl)-3-phenyl-1H-pyrazol-5-yl)-5-phenylisoxazole-3-carboxamide]
[1]
  inhibition of major cytochrome P450 isoforms: do not significantly inhibit major cytochrome P450 isoforms
CAL51 MUS81^–/– cells
  sensitization to cisplatin: no additional sensitization
U2OS cells [2]
  cell cycle progression: neither MU262 and MU876 affected the cell cycle progression
  cell cycle profile: mild increase in the S phase
U2OS DR-GFP cells
  IC50: 500 to 1000 nM
U2OS cells [3]
  γH2AX (DNA damage) foci: significantly increased the number of DNA damage foci in a concentration-dependent manner

## CCc1nn2c(O)c(-c3nc4ccccc4[nH]3)nnc2c1-c1ccc(F)cc1 [Compound 18, 3-(1H-Benzo[d]imidazole-2-yl)-7-ethyl-8-(4-fluorophenyl)pyrazolo[5,1-c][1,2,4]triazin-4-ol]
[1]
  inhibition of major cytochrome P450 isoforms: do not significantly inhibit major cytochrome P450 isoforms
CAL51 MUS81^–/– cells
  sensitization to cisplatin: no additional sensitization
U2OS cells [2]
  cell cycle progression: neither MU262 and MU876 affected the cell cycle progression
  cell cycle profile: mild increase in the S phase
U2OS DR-GFP cells
  IC50: 500 to 1000 nM
U2OS cells [3]
  γH2AX (DNA damage) foci: significantly increased the number of DNA damage foci in a concentration-dependent manner

Reference: article PMC12990037, “Discovery of Two Structurally Distinct Classes of Inhibitors Targeting the Nuclease MUS81 and Enhancing Efficacy of Chemotherapy in Cancer Cells” (Journal of Medicinal Chemistry, 2026)
